Earlier results on two molecules are cited in US20150147356A1, “ANTIPYRETICS TO ENHANCE TOLERABILITY OF VESICLE-BASED VACCINES” (priority 2011, published 2015).

The structures appear in SMILES notation. Values joined by “and” are separate entries in the source; they are usually repeats but may differ in a detail not shown here. Equal entries are not always repeated.

The conditions of data set [1]: in vivo.
For data set [2] the following is noted: in vivo. The source holds these as a separate data set.

With `CC(=O)Nc1ccc(O)cc1` [paracetamol, paracetamol (acetaminophen)], the Therapeutic blood level is 10-30 μg/ml and 66-199 μM. For the same molecule, the half-life result in data set [1] is “about 3 hours”.
Regarding `CC(C)Cc1ccc(C(C)C(=O)O)cc1` (stereo not shown) [Ibuprofen, ibuprofen], the Therapeutic blood level is 10-50 μg/ml and 49-243 μM. In addition, the duration of action entry in data set [2] is given as “about 4 hours”.
